US20090156480A1, “Biodegradable nanoparticle having t-cell recognizable epitope peptide immobilized thereon or encapsulated therein” (priority 2005, published 2009)

What was measured:
Type in all cases: in vivo, BALB/c mice
[1] = tested on: draining lymph node cells; test: Immunization potential: lymph node cell proliferation ([3H]thymidine intake) after subcutaneous footpad injection; details: s.c. footpads, nanoparticles corresponding to 20 μg peptide, FIG. 1; for cell proliferation response (thymidine intake) to the injected T cell recognizable epitope peptide: day 11 lymph node cells stimulated with P1 or P2 20 μg/ml; for cell proliferation response (thymidine intake) to SBP: day 11 lymph node cells stimulated with SBP 10 μg/ml
Protocol: (§1) Subcutaneously injected into the footpads of BALB/c mice (6-week-old male) was 100 μl (50 μl for each footpad) of a suspension of biodegradable nanoparticles having immobilized thereon Cryj1 or Cryj2 T cell recognizable epitope peptide (P1 or P2) (the amount of nanoparticles corresponding to 20 μg of the peptide) or nanoparticles having no peptide immobilized thereon. On day 11, a draining lymph node was removed to collect lymph node cells, which were then suspended in a mixture of RPM 11640 medium and 10% fetal calf serum (FCS). Such cells from two mice were combined together for use in each group. The cells were placed onto a 96-well incubation plate in an amount of 5×10^5 in each well. Further placed into each well as an antigen stimulus was P1 or P2 to a final concentration of 20 μg/ml or a cedar pollen roughly purified antigen (Sugi Basic Protein, SBP, Asahi Food and Health Care Co., Ltd.) in an amount of 10 μg/ml. Half of the mixture to be incubated was replaced by a fresh mixture to be incubated and containing [^3H] tritium-thymidine (0.5 μCi) 48 hours after the start of incubation. The cells were then collected onto a glass filter 16 hours thereafter by a cell harvester, and the [^3H] tritium intake (thymidine intake) was measured by a liquid scintillation counter for the evaluation of cell proliferation. The SBP mentioned above is an allergen containing both Cryj1 and Cryj2.

[2] = tested on: draining lymph node cells; test: Ocular (conjunctival) administration, SBP sensitization: cell proliferation (thymidine intake) on SBP stimulation; details: 5 μg peptide eight times, SBP sensitization day 16, SBP 10 μg/ml, versus ocularly untreated mice, FIG. 3
Protocol: as §1, with “Further placed into each well as an antigen stimulus was P1 or P2 to a final concentration of 20 μg/ml or a cedar pollen roughly purified antigen (Sugi Basic Protein, SBP, Asahi Food and Health Care Co., Ltd.) in an amount of 10 μg/ml. Half of the mixture to be incubated was replaced by a fresh mixture to be incubated and containing [^3H] tritium-thymidine (0.5 μCi) 48 hours after the start of incubation.” left out, “The SBP mentioned above is an allergen containing both Cryj1 and Cryj2.” left out
Mucosal administration of antigens is thought promising in immunotherapy, and the conjunctiva is considered to be one of the routes of administration (J. Immunol. 2000, 164: 4543-4550). […] The proliferation of cells was measured by the same method as described in Example 2. […]

[3] = tested on: interferon-γ; test: Ocular (conjunctival) administration: interferon-γ production by sandwich ELISA; details: 5 μg peptide eight times, supernatant 64 hours, SBP 10 μg/ml, versus ocularly untreated mice, FIG. 3
Protocol: (§2) Mucosal administration of antigens is thought promising in immunotherapy, and the conjunctiva is considered to be one of the routes of administration (J. Immunol. 2000, 164: 4543-4550). Biodegradable nanoparticles having immobilized thereon T cell recognizable epitope peptide were ocularly-instilled to investigate the influence on the response to the subsequent antigen sensitization. A saline solution of Cryj2 T cell recognizable epitope peptide (P2) (5 μg of the peptide) or a suspension of P2 immobilized nanoparticles (corresponding to 5 μg of the peptide) administered dropwise, in an amount of 10 μl, to the conjunctivas of the eyes of BALB/c mice (7-week-old male) eight times (on days 1-4 and days 6-9). On day 16, a suspension of 5 μg of cedar pollen roughly purified antigen SBP in Freund's incomplete adjuvant was injected for antigen sensitization into the right footpads to give rise to an immune response. […] The proliferation of cells was measured by the same method as described in Example 2. For the measurement of cytokine production, the supernatant was collected 64 hours after the start of incubation to quantitatively determine interleukin-5 and interferon-γ by sandwich ELISA using Bio-Plex cytokine assay system (product of Bio-Rad).

[4] = tested on: interleukin-5; test: Ocular (conjunctival) administration: interleukin-5 production by sandwich ELISA; details: 5 μg peptide eight times, supernatant 64 hours, SBP 10 μg/ml, versus ocularly untreated mice, FIG. 3
Protocol: as §2

Sequence | cell proliferation response (thymidine intake) to the injected T cell recognizable epitope peptide [1] | cell proliferation response (thymidine intake) to SBP [1] | cell proliferation response (thymidine intake) to the stimulation with the antigen [2] | production of interferon-γ (Th1 cytokine) [3] | production of interleukin-5 (Th2 cytokine) [4]
KQVTIRIGCKTSSS [P1, in b77 the label stands for the P1-immobilized nanoparticles injected] | specific cell proliferation response was observed | observed was a response to the SBP |  |  | 
RAEVSYVHVNGAKF [P2 alone] | specific cell proliferation response was observed | observed was a response to the SBP | lower | lower | reduced to nearly the same extent
